Laboratory results as given in patent publication US8975259B2, “Compositions and methods for inhibiting G protein signaling” (University of Rochester, priority 2007, dated 2015).
Like-named read-outs stand apart in the source and are kept apart here.

Molecular target: Gβ1γ2 (UniProt P54311+P63212)
Test: Competition phage ELISA: inhibition of SIGK-phage binding to immobilized biotinylated Gβ1γ2
Parameters: made in house; host or cells: Sf9 insect cells (baculovirus; co-expressed with BirA and (His)6-Gαi1, from which βγ was eluted); species or system rat
Procedure: Phage ELISA assays used to assess peptide binding to wild-type and mutant b-βγ were performed according to standard methods (Smrcka and Scott (2002) Methods Enzymol. 344:557-76). Briefly, 1 μg streptavidin was immobilized in the well of a […] overnight at 4° C. The wells were blocked with 100 μL of 2% bovine serum albumin (BSA) in Tris-buffered saline (TBS) for 1 hour at 4° C. followed by three washes of IX TBS/0.5% TWEEN®. […] The wells were washed, followed by the addition of IxIO^6 to IxIO^10 phage particles and incubated at 4° C. for 3 hours. The wells were then washed six times with TBS/0.5% TWEEN® followed by addition of 40 μL of 1:5000 dilution of anti-M13 antibody (Pharmacia, Uppsala, Sweden) and incubated at room temperature for 1 hour. The wells were washed, followed by the addition of 40 μL of (2,2′-Azino-bis (3-ethylbenzthiazoline)-6-sulfonic acid (ABTS) and the colorimetric reaction was monitored at 405 nm. Nonspecific binding was subtracted for each reading.
A phage ELISA assay was used to determine whether small molecules identified in the computational screen could interact with the Gβy protein interaction surface. […] The screen was based on a reduction in the optical density (OD) of wells containing Gβγ subunits and phage. […] Three background wells contained no βy subunits.
As disclosed herein, biotinylated Gβy subunits were immobilized on the surface of a 96-well plate coated with streptavidin, phage displaying Gβγ-binding peptides were subsequently added and binding in the presence and absence of test compounds detected with an anti-phage antibody.
The phage ELISA assay was used to rapidly screen the ability of compounds to bind to the protein interaction “hot spot” based on the method of Scott et. al (Scott et al., 2001). This assay is performed in the presence of detergent (0.5% Tween) to eliminate non-specific compound aggregation artifacts.
Compounds/DMSO and 0.1×10^10 phage were added simultaneously and subsequently incubated for 1 h at room temperature. Plates were then washed with 1× Tris-buffered saline/0.5% Tween 20 and incubated with anti-M13, HRP-conjugated antibody (Amersham, Chalfont St. Giles, Buckinghamshire, UK). Phage binding was determined by monitoring A405 upon addition of 2,2′-azino-bis(3-ethylbenzothiazoline-6-sulfonic acid) (Sigma Aldrich).

Nc1c(S(=O)(=O)O)cc(Nc2cccc(S(N)(=O)=O)c2)c2c1C(=O)c1ccccc1C2=O [drawing 50]
IC50 (Table 2, read-out: Elisa IC50): 56 µM

O=C(O)CCc1c2ccc(=O)cc-2oc2cc(O)ccc12 [3-(6-hydroxy-3-oxo-3H-xanthen-9-yl)propionic acid]
binding to the G protein β subunit (result in words): Neither of these compounds showed any binding

Cc1cc(N)c2cc(CC(=O)C(C)(C)C(=O)Nc3ccc4nc(C)cc(N)c4c3)ccc2n1
IC50 (Table 7, read-out: ELISA IC50): 74 µM

CNc1ccc(Nc2cc(S(=O)(=O)O)c(N)c3c2C(=O)c2ccccc2C3=O)cc1
IC50 (Table 2, read-out: Elisa IC50): 59 µM

Nc1c(S(=O)(=O)O)cc(Nc2cccc(S(N)(=O)=O)c2)c2c1C(=O)c1ccccc1C2=O [Compound M117]
IC50 (Table 8, read-out: IC50): 43 µM | IC50 (Table 18, compounds identified in Elisa screen, read-out: IC50): 56 µM

7-methyl-3-(4,5,6-trihydroxy-3-oxo-3H-xanthen-9-yl)bicyclo[2.2.1]hept-5-ene-2-carboxylic acid
IC50 (kind of constant not stated, read-out: binding to the protein interaction site of the β subunit of a G protein): 0.7 µM
